Measurements as given in article PMC6409085, “Three odorant-binding proteins are involved in the behavioral response of Sogatella furcifera to rice plant volatiles” (PeerJ, 2019).
Several values for one entry are separate records, joined by “and”; a condition that tells them apart may be missing. Equal entries are not always repeated.

Columns and labels:
SfurOBP1 = SfurOBP1 (Sogatella furcifera, UniProt V5T8N5); experiment: biochemical; type: binding; conditions: for Fluorescence competitive binding assay, fluorescence intensity: OBP1, three replicate columns
Sequence of SfurOBP1 (V5T8N5 entry or part of it): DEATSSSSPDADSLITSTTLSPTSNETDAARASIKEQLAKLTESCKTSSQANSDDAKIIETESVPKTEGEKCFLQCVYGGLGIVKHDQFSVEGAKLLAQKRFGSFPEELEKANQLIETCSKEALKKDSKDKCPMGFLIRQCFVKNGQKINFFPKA
In short: (§1)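 First, 2.0 µM protein in 50 mM Tris-HCl (pH 7.4) was titrated with 1-NPN to obtain K1-NPN. Then odorants (2–20 µM final) competed against 2.0 µM 1-NPN, with fluorescence (ex 337 nm) recorded after 2 min. Ki was computed from IC50 via Ki = IC50/(1 + [1-NPN]/K1-NPN).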

SfurOBP11 = SfurOBP11 (Sogatella furcifera, UniProt V5T6E3); experiment: biochemical; type: binding
Sequence of SfurOBP11 (V5T6E3 entry or part of it): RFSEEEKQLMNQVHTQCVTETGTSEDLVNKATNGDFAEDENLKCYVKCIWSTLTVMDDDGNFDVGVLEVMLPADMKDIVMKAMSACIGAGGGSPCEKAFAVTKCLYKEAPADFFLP
In short: as §1

SfurOBP2 = SfurOBP2 (Sogatella furcifera, UniProt V5T759); experiment: biochemical; type: binding
Sequence of SfurOBP2 (V5T759 entry or part of it): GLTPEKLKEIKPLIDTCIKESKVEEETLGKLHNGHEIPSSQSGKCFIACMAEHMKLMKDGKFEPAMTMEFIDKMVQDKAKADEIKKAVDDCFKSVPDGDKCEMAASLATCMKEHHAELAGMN
In short: as §1

SfurOBP3 = SfurOBP3 (Sogatella furcifera, UniProt V5T818); experiment: biochemical; type: binding; conditions: for Fluorescence competitive binding assay, fluorescence intensity: OBP3, three replicate columns
Sequence of SfurOBP3 (V5T818 entry or part of it): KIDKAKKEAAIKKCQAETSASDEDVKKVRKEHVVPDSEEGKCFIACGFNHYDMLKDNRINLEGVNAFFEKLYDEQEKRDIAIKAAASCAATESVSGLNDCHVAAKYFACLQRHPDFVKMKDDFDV
In short: as §1

S. furcifera adults = experiment: Y-tube olfactometer behavioral trials; type: in vivo, Sogatella furcifera; conditions: odorant 50 µL/L vs hexane; adults
In short: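 Single S. furcifera adults (2 days post-emergence, starved 0.5 h) chose between odorant (100 µL of 50 µL/L on filter paper) and hexane control in a glass Y-tube, charcoal-filtered humidified air 300 mL/min per arm, 25 ± 1 °C, 50% RH. Choice scored if insect passed half an arm and stayed >1 min within 10 min; 45 insects per compound, chi-squared test.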

- Fluorescence competitive binding assay, fluorescence intensity (SfurOBP1; ligand concentration 2 (μM)): 5361 and 5140 and 5582
- Fluorescence competitive binding assay, fluorescence intensity (SfurOBP1; ligand concentration 4 (μM)): 6690 and 6608 and 6742
- Fluorescence competitive binding assay, fluorescence intensity (SfurOBP1; ligand concentration 6 (μM)): 8870 and 9897 and 7869
- Fluorescence competitive binding assay, fluorescence intensity (SfurOBP1; ligand concentration 8 (μM)): 7482 and 6593 and 11079
- Fluorescence competitive binding assay, fluorescence intensity (SfurOBP1; ligand concentration 10 (μM)): 7327 and 7941 and 8862
- Fluorescence competitive binding assay, fluorescence intensity (SfurOBP1; ligand concentration 12 (μM)): 8260 and 9027 and 8555
- Fluorescence competitive binding assay, fluorescence intensity (SfurOBP1; ligand concentration 14 (μM)): 9439 and 7708 and 9780
- Fluorescence competitive binding assay, fluorescence intensity (SfurOBP1; ligand concentration 16 (μM)): 8450 and 9204 and 7552
- Fluorescence competitive binding assay, fluorescence intensity (SfurOBP1; ligand concentration 18 (μM)): 9810 and 13450 and 9951
- Fluorescence competitive binding assay, fluorescence intensity (SfurOBP1; ligand concentration 20 (μM)): 10406 and 10007 and 8824
- IC50 (SfurOBP1; SfurOBP1, protein and 1-NPN both 2.0 µM, competitor 2-20 µM, read-out: IC50): > 20 µM
- IC50 (SfurOBP11; SfurOBP11, protein and 1-NPN both 2.0 µM, competitor 2-20 µM, read-out: IC50): > 20 µM
- Fluorescence intensity, fluorescence competitive binding assay, OBP11 (SfurOBP11; ligand concentration 2, replicate 1): 39005
- Fluorescence intensity, fluorescence competitive binding assay, OBP11 (SfurOBP11; ligand concentration 2, replicate 2): 36085
- Fluorescence intensity, fluorescence competitive binding assay, OBP11 (SfurOBP11; ligand concentration 2, replicate 3): 36144
- Fluorescence intensity, fluorescence competitive binding assay, OBP11 (SfurOBP11; ligand concentration 4, replicate 1): 38725
- Fluorescence intensity, fluorescence competitive binding assay, OBP11 (SfurOBP11; ligand concentration 4, replicate 2): 39209
- Fluorescence intensity, fluorescence competitive binding assay, OBP11 (SfurOBP11; ligand concentration 4, replicate 3): 36494
- Fluorescence intensity, fluorescence competitive binding assay, OBP11 (SfurOBP11; ligand concentration 6, replicate 1): 38941
- Fluorescence intensity, fluorescence competitive binding assay, OBP11 (SfurOBP11; ligand concentration 6, replicate 2): 37869
- Fluorescence intensity, fluorescence competitive binding assay, OBP11 (SfurOBP11; ligand concentration 6, replicate 3): 35504
- Fluorescence intensity, fluorescence competitive binding assay, OBP11 (SfurOBP11; ligand concentration 8, replicate 1): 38326
- Fluorescence intensity, fluorescence competitive binding assay, OBP11 (SfurOBP11; ligand concentration 8, replicate 2): 38320
- Fluorescence intensity, fluorescence competitive binding assay, OBP11 (SfurOBP11; ligand concentration 8, replicate 3): 34260
- Fluorescence intensity, fluorescence competitive binding assay, OBP11 (SfurOBP11; ligand concentration 10, replicate 1): 39470
- Fluorescence intensity, fluorescence competitive binding assay, OBP11 (SfurOBP11; ligand concentration 10, replicate 2): 35190
- Fluorescence intensity, fluorescence competitive binding assay, OBP11 (SfurOBP11; ligand concentration 10, replicate 3): 34723
- Fluorescence intensity, fluorescence competitive binding assay, OBP11 (SfurOBP11; ligand concentration 12, replicate 1): 35740
- Fluorescence intensity, fluorescence competitive binding assay, OBP11 (SfurOBP11; ligand concentration 12, replicate 2): 35339
- Fluorescence intensity, fluorescence competitive binding assay, OBP11 (SfurOBP11; ligand concentration 12, replicate 3): 34546
- Fluorescence intensity, fluorescence competitive binding assay, OBP11 (SfurOBP11; ligand concentration 14, replicate 1): 33030
- Fluorescence intensity, fluorescence competitive binding assay, OBP11 (SfurOBP11; ligand concentration 14, replicate 2): 32494
- Fluorescence intensity, fluorescence competitive binding assay, OBP11 (SfurOBP11; ligand concentration 14, replicate 3): 31487
- Fluorescence intensity, fluorescence competitive binding assay, OBP11 (SfurOBP11; ligand concentration 16, replicate 1): 29383
- Fluorescence intensity, fluorescence competitive binding assay, OBP11 (SfurOBP11; ligand concentration 16, replicate 2): 30154
- Fluorescence intensity, fluorescence competitive binding assay, OBP11 (SfurOBP11; ligand concentration 16, replicate 3): 29504
- Fluorescence intensity, fluorescence competitive binding assay, OBP11 (SfurOBP11; ligand concentration 18, replicate 1): 32894
- Fluorescence intensity, fluorescence competitive binding assay, OBP11 (SfurOBP11; ligand concentration 18, replicate 2): 34140
- Fluorescence intensity, fluorescence competitive binding assay, OBP11 (SfurOBP11; ligand concentration 18, replicate 3): 29208
- Fluorescence intensity, fluorescence competitive binding assay, OBP11 (SfurOBP11; ligand concentration 20, replicate 1): 31537
- Fluorescence intensity, fluorescence competitive binding assay, OBP11 (SfurOBP11; ligand concentration 20, replicate 2): 29929
- Fluorescence intensity, fluorescence competitive binding assay, OBP11 (SfurOBP11; ligand concentration 20, replicate 3): 28655
- IC50 (SfurOBP2; SfurOBP2, protein and 1-NPN both 2.0 µM, competitor 2-20 µM, read-out: IC50): > 20 µM
- Fluorescence competitive binding assay, OBP2 (raw fluorescence reading) (SfurOBP2; ligand concentration 2 (unit not given), replicate column 1 of 3): 22779
- Fluorescence competitive binding assay, OBP2 (raw fluorescence reading) (SfurOBP2; ligand concentration 2 (unit not given), replicate column 2 of 3): 20086
- Fluorescence competitive binding assay, OBP2 (raw fluorescence reading) (SfurOBP2; ligand concentration 2 (unit not given), replicate column 3 of 3): 21018
- Fluorescence competitive binding assay, OBP2 (raw fluorescence reading) (SfurOBP2; ligand concentration 4 (unit not given), replicate column 1 of 3): 21686
- Fluorescence competitive binding assay, OBP2 (raw fluorescence reading) (SfurOBP2; ligand concentration 4 (unit not given), replicate column 2 of 3): 22088
- Fluorescence competitive binding assay, OBP2 (raw fluorescence reading) (SfurOBP2; ligand concentration 4 (unit not given), replicate column 3 of 3): 20918
- Fluorescence competitive binding assay, OBP2 (raw fluorescence reading) (SfurOBP2; ligand concentration 6 (unit not given), replicate column 1 of 3): 24120
- Fluorescence competitive binding assay, OBP2 (raw fluorescence reading) (SfurOBP2; ligand concentration 6 (unit not given), replicate column 2 of 3): 23625
- Fluorescence competitive binding assay, OBP2 (raw fluorescence reading) (SfurOBP2; ligand concentration 6 (unit not given), replicate column 3 of 3): 22791
- Fluorescence competitive binding assay, OBP2 (raw fluorescence reading) (SfurOBP2; ligand concentration 8 (unit not given), replicate column 1 of 3): 22496
- Fluorescence competitive binding assay, OBP2 (raw fluorescence reading) (SfurOBP2; ligand concentration 8 (unit not given), replicate column 2 of 3): 24832
- Fluorescence competitive binding assay, OBP2 (raw fluorescence reading) (SfurOBP2; ligand concentration 8 (unit not given), replicate column 3 of 3): 23266
- Fluorescence competitive binding assay, OBP2 (raw fluorescence reading) (SfurOBP2; ligand concentration 10 (unit not given), replicate column 1 of 3): 22518
- Fluorescence competitive binding assay, OBP2 (raw fluorescence reading) (SfurOBP2; ligand concentration 10 (unit not given), replicate column 2 of 3): 23515
- Fluorescence competitive binding assay, OBP2 (raw fluorescence reading) (SfurOBP2; ligand concentration 10 (unit not given), replicate column 3 of 3): 22157
- Fluorescence competitive binding assay, OBP2 (raw fluorescence reading) (SfurOBP2; ligand concentration 12 (unit not given), replicate column 1 of 3): 23732
- Fluorescence competitive binding assay, OBP2 (raw fluorescence reading) (SfurOBP2; ligand concentration 12 (unit not given), replicate column 2 of 3): 24191
- Fluorescence competitive binding assay, OBP2 (raw fluorescence reading) (SfurOBP2; ligand concentration 12 (unit not given), replicate column 3 of 3): 22198
- Fluorescence competitive binding assay, OBP2 (raw fluorescence reading) (SfurOBP2; ligand concentration 14 (unit not given), replicate column 1 of 3): 22713
- Fluorescence competitive binding assay, OBP2 (raw fluorescence reading) (SfurOBP2; ligand concentration 14 (unit not given), replicate column 2 of 3): 20356
- Fluorescence competitive binding assay, OBP2 (raw fluorescence reading) (SfurOBP2; ligand concentration 14 (unit not given), replicate column 3 of 3): 21973
- Fluorescence competitive binding assay, OBP2 (raw fluorescence reading) (SfurOBP2; ligand concentration 16 (unit not given), replicate column 1 of 3): 21871
- Fluorescence competitive binding assay, OBP2 (raw fluorescence reading) (SfurOBP2; ligand concentration 16 (unit not given), replicate column 2 of 3): 23043
- Fluorescence competitive binding assay, OBP2 (raw fluorescence reading) (SfurOBP2; ligand concentration 16 (unit not given), replicate column 3 of 3): 23038
- Fluorescence competitive binding assay, OBP2 (raw fluorescence reading) (SfurOBP2; ligand concentration 18 (unit not given), replicate column 1 of 3): 25864
- Fluorescence competitive binding assay, OBP2 (raw fluorescence reading) (SfurOBP2; ligand concentration 18 (unit not given), replicate column 2 of 3): 26767
- Fluorescence competitive binding assay, OBP2 (raw fluorescence reading) (SfurOBP2; ligand concentration 18 (unit not given), replicate column 3 of 3): 25338
- Fluorescence competitive binding assay, OBP2 (raw fluorescence reading) (SfurOBP2; ligand concentration 20 (unit not given), replicate column 1 of 3): 26712
- Fluorescence competitive binding assay, OBP2 (raw fluorescence reading) (SfurOBP2; ligand concentration 20 (unit not given), replicate column 2 of 3): 23676
- Fluorescence competitive binding assay, OBP2 (raw fluorescence reading) (SfurOBP2; ligand concentration 20 (unit not given), replicate column 3 of 3): 24323
- Fluorescence competitive binding assay, fluorescence intensity (SfurOBP3; ligand concentration 2): 81706 and 89895 and 90926
- Fluorescence competitive binding assay, fluorescence intensity (SfurOBP3; ligand concentration 4): 92466 and 96932 and 93745
- Fluorescence competitive binding assay, fluorescence intensity (SfurOBP3; ligand concentration 6): 84153 and 91141 and 92184
- Fluorescence competitive binding assay, fluorescence intensity (SfurOBP3; ligand concentration 8): 88550 and 83959 and 85903
- Fluorescence competitive binding assay, fluorescence intensity (SfurOBP3; ligand concentration 10): 84955 and 81246 and 84347
- Fluorescence competitive binding assay, fluorescence intensity (SfurOBP3; ligand concentration 12): 79099 and 81968 and 85076
- Fluorescence competitive binding assay, fluorescence intensity (SfurOBP3; ligand concentration 14): 78930 and 78937 and 80614
- Fluorescence competitive binding assay, fluorescence intensity (SfurOBP3; ligand concentration 16): 67688 and 71739 and 72376
- Fluorescence competitive binding assay, fluorescence intensity (SfurOBP3; ligand concentration 18): 93819 and 87996 and 91999
- Fluorescence competitive binding assay, fluorescence intensity (SfurOBP3; ligand concentration 20): 87679 and 80588 and 71651
- IC50 (SfurOBP3; SfurOBP3, protein and 1-NPN both 2.0 µM, competitor 2-20 µM, read-out: IC50): > 20 µM
Compound: CCCCCCCCCCCCCCCCCCC [n-nonadecane]
- number of insects choosing hexane arm (S. furcifera adults): 13
- number of insects choosing volatilies arm (S. furcifera adults): 15
- number of insects failed (no choice) (S. furcifera adults): 12
